Four molecules from patent publication US8574551B2, “Compositions useful for reducing nephrotoxicity and methods of use thereof” (Verrow Pharmaceuticals, Inc., priority 2005, dated 2013) can be followed below.

What all share (type): in vivo, C57BL/6 mice
Data set [1] concerns kidney. The data set is described as follows: Iohexyl induced nephrotoxicity in mildly renal compromised mice. The settings on record: iohexyl 1.5 g/kg iv once, alone, 24 hrs. As for the experimental part: Iohexyl is nephrotoxic in humans and can produce acute renal failure in renally compromised patients. Therefore, the nephroprotective effects of sulfobutyl ethyl β cyclodextrin (SBE-βCD) in a contrast agent induced nephropathy model involving mildly renal compromised mice was evaluated. […] In order to produce mildly renal compromised mice, female C57BL/6 mice were injected with nitric oxide synthase inhibitor L-NAME (L arginine methyl ester) 10 mg/kg and prostaglandin synthesis inhibitor Indomethacin 10 mg/kg, ip., 15-20 min before injecting of iohexyl. The mice were administered a single bolus intravenous injections of iohexyl 1.5 g/kg (N=4) or iohexyl 1.5 g/kg+SBE-βCD 1.3 g/kg (N=4), or iohexyl 1.5 g/kg+SBE-βCD […] administered 30 minutes before, concurrently, and 30 min after iohexyl injection (N=4) (Table 7). In both cases, the iohexyl to SBE-βCD molar ratio was 1:0.1 during the concurrent dose. […] Renal pathology was assessed by evaluating H&E sections of the kidney under a light microscope.
Paraffin sections of […] were cut and stained with H&E and periodic acid Schiff (PAS). They were examined by light microscopy and scored in a blinded fashion. At 40× magnification, five arbitrary fields in each section was assessed for the below mentioned parameters and scored blindly according to the criteria mentioned. A total of 4 sections were analyzed per kidney.

Data set [2] concerns kidney. The data set is described as follows: Gentamicin induced nephrotoxicity in mice. The settings on record: 10 consecutive days. The procedure: These doses however, produce nephrotoxicity in humans. Therefore, nephroprotective effects of SBE-βCD in mildly renal compromised mice was evaluated. […] In order to produce mildly renal compromised mice, animals were injected with L-NAME (L arginine methyl ester) 10 mg/kg and Indomethacin 10 mg/kg, ip., 15-20 min before the first injection of gentamicin. Female C57BL/6 mice were administered bolus intravenous injections for ten consecutive days with a dose of 4.0 mg/kg gentamicin (N=4) or gentamicin 4.0 mg/kg+SBE-βCD 19.2 mg/kg (N=4), or gentamicin 4.0 mg/kg+SBE-βCD 38.4 mg/kg (N=4). Gentamicin to SBE-βCD molar ratios were 1:1 and 1:2 respectively. Animals were sacrificed after 48 hrs after the last injection. Renal pathology was assessed by evaluating H&E sections of the kidney under light microscope.
Paraffin sections of […] were cut and stained with H&E and periodic acid Schiff (PAS). They were examined by light microscopy and scored in a blinded fashion. Five arbitrary fields at 40× magnification in each sections was assessed for the below mentioned parameters and scored according to the criteria mentioned

Data set [3] deals with kidney. The experiment in a line: Doxorubicin induced nephrotoxicity model in mice. Particulars: doxorubicin 10 mg/kg single iv dose; 72 hours. The procedure: Female C57BL/6 mice were injected intravenously with a single dose of (10 mg/kg) doxorubicin. The mice were sacrificed after 72 hours. The development of glumerular and tubulointerstitial injury after doxorubicin and doxorubicin+Captisol was evaluated by means of renal histology. Paraffin sections of […] were cut and stained with H&E and periodic acid Schiff (PAS). They were examined by light microscopy and scored in a blinded fashion. Thirty glomeruli and neighboring tubules were scored at superficial cortes (near the surface of the capsule). One hundred glomeruli and neighboring tubules were scored at the level of deep renal cortex and around the outer strips of the outer medulla.

The subject of data set [4] is kidney. The experiment in a line: Acyclovir induced nephrotoxicity in mildly renal compromised mice. Particulars: acyclovir 10 or 30 mg/kg IV, 10 consecutive days, alone. As for the experimental part: These doses however, produce nephrotoxicity in humans. Therefore, the nephroprotective effects of sulfobutylether β cyclodextrin (SBEβCD) in mildly renal compromised mice was evaluated. […] In order to produce mildly renal compromised mice, animals were injected with L-NAME (L arginine methyl ester) 10 mg/kg and Indomethacin 10 mg/kg, ip., 15-20 min before the first injection of acyclovir. Female C57BL/6 mice were administered bolus intravenous injections for ten consecutive days with a dose of 10 mg/kg acyclovir (N=3) or acyclovir 10 mg/kg+SBEβCD 173 mg/kg (N=3), or 30 mg/kg acyclovir (N=3) or acyclovir 30 mg/kg+SBEβCD 520 mg/kg (N=3) (Table 6). In both cases the acyclovir to SBEβCD molar ratio was 1:2. Animals were sacrificed after 48 hrs after the last injection. Renal pathology was assessed by evaluating H&E sections of the kidney under a light microscope. Paraffin sections of […] were cut and stained with H&E and periodic acid Schiff (PAS). They were examined by light microscopy and scored in a blinded fashion. Five arbitratary fields at 40× magnification in each sections was assessed according to the below mentioned parameters and scored according to the criteria mentioned.

Turning to `CC(=O)N(CC(O)CO)c1c(I)c(C(=O)NCC(O)CO)c(I)c(C(=O)NCC(O)CO)c1I` (centres unmarked) [Iohexyl, iohexyl], in the data set with kidney [1], the renal histology result is reported as “moderate to severe signs of tubulopathy”.
Regarding gentamicin, the renal histology entry in the data set with kidney [2] (healthy mice, gentamicin 4 mg/kg intravenously) is “no noticeable changes in the tubular cells in the healthy kidney”; in the data set with kidney [2] (mild renal compromised mice (L-NAME + Indomethacin), gentamicin 4 mg/kg iv) it was “extensive tubular vacuolization and necrosis in the renal cortex”.
Consider `COc1cccc2c1C(=O)c1c(O)c3c(c(O)c1C2=O)C[C@@](O)(C(=O)CO)C[C@@H]3O[C@H]1C[C@H](N)[C@H](O)[C@H](C)O1` [doxorubicin], for which the renal histology entry in the data set on kidney [3] was “tubular casts, abundant dilated tubules and moderate loss of brush border in the some proximal tubules”.
Consider `Nc1nc2c(ncn2COCCO)c(=O)[nH]1` [Acyclovir, acyclovir], for which the renal histology result in the data set with kidney [4] is reported as “moderate to severe signs of tubulopathy”.
